# Test results from US10488411B2, “Inflammasome activation in myelodysplastic syndromes” (H. LEE MOFFITT CANCER CENTER AND RESEARCH INSTITUTE, INC., priority 2015, dated 2019).
# Legend:
# inflammasome = assay: ASC staining flow cytometry for inflammasome formation in SF3B1-K700E BM cells; type: cell-based, mouse; conditions: 24 hours treatment
# Method: ASC staining to detect inflammasome formation by flow cytometry. Staining was carried out as described ([…], et al. J Immunol. 2015 194(1):455-62). Briefly, cell pellets were resuspended in 1 mL of prewarmed BD Permeabilization Buffer III, and incubated on ice for 30 minutes. Cells were washed 2× with staining buffer. Following washing, cells were stained with rabbit-anti-ASC primary antibodies at a 1:1500 dilution and incubated for 90 minutes. Cells were washed, stained with secondary antibodies at a dilution of 1:1500, and incubated for 45 minutes. Cells were washed, and sample acquisitions were carried out using a BD LSR II flow cytometer and FACSDiva software.
# β-catenin [1] = assay: β-catenin confocal microscopy in U2AF1 S34F mutant TF-1 cells; type: cell-based; conditions: treated for 24 hours prior to staining
# Method: Reagents and cells. U937 cells were grown in RPMI1640 supplemented with 10% FBS. TF-1 U2AF1 mutant and mock WT cells were cultured in RPMI1640 supplemented with 10% FBS and 2 ng/mL recombinant human GM-CSF. Cells were maintained at 37° C. under 5% CO2. Normal, heparinized BM aspirates were purchased from Lonza Walkersville or AllCells, LLC. […] J Clin Invest. 2013 123(11):4595-611). The IRAK4 inhibitor was acquired through material transfer agreement from Nimbus Discovery. NAC and DPI were purchased from Sigma-Aldrich. Active caspase-1 and caspase-3/7 were detected using FAM-FLICA® Caspase-1 and Caspase-3/7 activity kits, (ImmunoChemistry Technologies). NLRP1 antibodies were purchased from Santa Cruz Biotechnology, NLRP3 antibodies from Abcam, and β-catenin antibodies from BD Biosciences. Immunofluorescence confocal microscopy. MDS and normal donor BM-MNC and mouse BM cells were stained with 30× FAM-FLICA® Caspase-1 solution at a ratio of 1:30 for 2 hours at 37° C. Cells were washed and cytospins were generated using a 5 minutes centrifugation at 450 rpm. Slides were fixed at 37° C. for 10 minutes using BD Cytofix Fixation Buffer (BD Biosciences), and subsequently washed using PBS. […] Co-localization of a-caspase-1 with NLRP3 inflammasome complexes was assessed using a Leica TCS SP5 AOBS Laser Scanning Confocal microscope (Leica Microsystems). […]
# β-catenin [2] = assay: β-catenin confocal microscopy in SF3B1-K700E BM cells; type: cell-based, mouse; conditions: 24 hours treatment
# Method: (§1) Immunofluorescence confocal microscopy. MDS and normal donor BM-MNC and mouse BM cells were stained with 30× FAM-FLICA® Caspase-1 solution at a ratio of 1:30 for 2 hours at 37° C. Cells were washed and cytospins were generated using a 5 minutes centrifugation at 450 rpm. Slides were fixed at 37° C. for 10 minutes using BD Cytofix Fixation Buffer (BD Biosciences), and subsequently washed using PBS. Cells were permeabilized with 0.1% Triton X-100/2% BSA in PBS for 15 minutes at room temperature. After washing with PBS, cells were blocked using 2% BSA in PBS for 30 minutes at room temperature, and washed again. Cells were incubated with the appropriate primary antibody overnight (1:400 for NLRP3, 1:20 for β-catenin) at 4° C. The next day, cells were washed with PBS and incubated with the appropriate secondary antibodies (1:500) for 1 hour at room temperature. After washing, cells were covered with ProLong Gold Antifade Reagent with DAPI prior to the addition of a coverslip (Life Technologies). Co-localization of a-caspase-1 with NLRP3 inflammasome complexes was assessed using a Leica TCS SP5 AOBS Laser Scanning Confocal microscope (Leica Microsystems). Analysis of the inflammasome images was performed with Definiens Developer 2.0 (Definiens AG). The software was used to segment cells based on brightness and size thresholds, followed by a watershed segmentation algorithm. […]
# ROS [3] = assay: ROS detection by flow cytometry in SF3B1-K700E BM cells; type: cell-based, mouse; conditions: NAC or DPI treatment
# Text: (§2) ROS detection. ROS were detected using CM-H2DCFDA and CellROX® Deep Red Reagent according to manufacturer's protocol (Life Technologies).
# β-catenin [4] = assay: β-catenin confocal microscopy in normal BM-MNC; type: cell-based, human
# Method: as §1
# β-catenin [5] = assay: β-catenin confocal microscopy in U937 cells; type: cell-based; conditions: 5 μg/mL, 24 hours, compared to untreated cells
# [6] = system: pyroptosis-associated genes; assay: qPCR of pyroptosis-associated genes in normal BM-MNC treated with rhS100A9; type: cell-based, human; conditions: normal BM-MNC (n=2), 1 μg/mL, 24 hours
# Method: Real-time quantitative PCR. RNA was isolated from BM-MNC using the RNeasy Mini Kit (Qiagen). cDNA was produced using the iScript cDNA Synthesis Kit (Bio-Rad). Sequences for primers can be found in Table 1. GAPDH mRNA was used for transcript normalization. cDNA was amplified using the iQ SYBR Green Supermix and the CFX96 Real-Time PCR Detection System (Bio-Rad). PCR conditions were as follows: 10 minutes at 95° C., followed by 40 cycles of amplification (15 seconds at 95° C. and 1 minute at 60° C.). Relative gene expression was calculated using the −2^ΔΔCt method.
# U937 cells [7] = assay: Pore formation, ethidium bromide uptake in U937 cells; type: cell-based; conditions: U937, 5 μg/mL rhS100A9, 12.5 μg/mL ethidium bromide
# NLRP3 inflammasome [8] = assay: Confocal microscopy of a-caspase-1/NLRP3 in WT mouse BM cells treated with rhS100A9; type: cell-based; conditions: 5 μg/mL, 24 hours
# Method: (§3) Immunofluorescence confocal microscopy. MDS and normal donor BM-MNC and mouse BM cells were stained with 30× FAM-FLICA® Caspase-1 solution at a ratio of 1:30 for 2 hours at 37° C. Cells were washed and cytospins were generated using a 5 minutes centrifugation at 450 rpm. Slides were fixed at 37° C. for 10 minutes using BD Cytofix Fixation Buffer (BD Biosciences), and subsequently washed using PBS. Cells were permeabilized with 0.1% Triton X-100/2% BSA in PBS for 15 minutes at room temperature. After washing with PBS, cells were blocked using 2% BSA in PBS for 30 minutes at room temperature, and washed again. Cells were incubated with the appropriate primary antibody overnight (1:400 for NLRP3, 1:20 for β-catenin) at 4° C. The next day, cells were washed with PBS and incubated with the appropriate secondary antibodies (1:500) for 1 hour at room temperature. After washing, cells were covered with ProLong Gold Antifade Reagent with DAPI prior to the addition of a coverslip (Life Technologies). Co-localization of a-caspase-1 with NLRP3 inflammasome complexes was assessed using a Leica TCS SP5 AOBS Laser Scanning Confocal microscope (Leica Microsystems). Analysis of the inflammasome images was performed with Definiens Developer 2.0 (Definiens AG). The software was used to segment cells based on brightness and size thresholds, followed by a watershed segmentation algorithm. Intensity values and Pearson's correlation coefficient were extracted from the segmented cells. For β-catenin image analysis, confocal images were imported into Definiens Tissue Studio v3.0, 64 Dual in .tif format. Cells were separated from background using the RGB thresholds. Nuclei were identified by setting thresholds in the DAPI channel. Typical cells averaged 60 microns. The red intensity (β-catenin) in the nucleus and cytoplasm was established by setting thresholds to low, medium and high in the red channel on a scale of 0-255 in the red channel.
# NLRP3 inflammasome [9] = assay: Confocal microscopy of a-caspase-1/NLRP3 in normal BM-MNC treated with rhS100A9; type: cell-based, human; conditions: 5 μg/mL, 24 hours
# Method: as §3
# NLRP3 inflammasome [10] = molecular target: T1, NLRP3 inflammasome (Homo sapiens, UniProt Q96P20); assay: Confocal microscopy of a-caspase-1/NLRP3 inflammasome formation in U937 cells; type: cell-based; conditions: 5 μg/mL, 24 hours
# T1 construct: endogenous in cells; host or cells: U937 cells
# T1 sequence (Q96P20 whole entry): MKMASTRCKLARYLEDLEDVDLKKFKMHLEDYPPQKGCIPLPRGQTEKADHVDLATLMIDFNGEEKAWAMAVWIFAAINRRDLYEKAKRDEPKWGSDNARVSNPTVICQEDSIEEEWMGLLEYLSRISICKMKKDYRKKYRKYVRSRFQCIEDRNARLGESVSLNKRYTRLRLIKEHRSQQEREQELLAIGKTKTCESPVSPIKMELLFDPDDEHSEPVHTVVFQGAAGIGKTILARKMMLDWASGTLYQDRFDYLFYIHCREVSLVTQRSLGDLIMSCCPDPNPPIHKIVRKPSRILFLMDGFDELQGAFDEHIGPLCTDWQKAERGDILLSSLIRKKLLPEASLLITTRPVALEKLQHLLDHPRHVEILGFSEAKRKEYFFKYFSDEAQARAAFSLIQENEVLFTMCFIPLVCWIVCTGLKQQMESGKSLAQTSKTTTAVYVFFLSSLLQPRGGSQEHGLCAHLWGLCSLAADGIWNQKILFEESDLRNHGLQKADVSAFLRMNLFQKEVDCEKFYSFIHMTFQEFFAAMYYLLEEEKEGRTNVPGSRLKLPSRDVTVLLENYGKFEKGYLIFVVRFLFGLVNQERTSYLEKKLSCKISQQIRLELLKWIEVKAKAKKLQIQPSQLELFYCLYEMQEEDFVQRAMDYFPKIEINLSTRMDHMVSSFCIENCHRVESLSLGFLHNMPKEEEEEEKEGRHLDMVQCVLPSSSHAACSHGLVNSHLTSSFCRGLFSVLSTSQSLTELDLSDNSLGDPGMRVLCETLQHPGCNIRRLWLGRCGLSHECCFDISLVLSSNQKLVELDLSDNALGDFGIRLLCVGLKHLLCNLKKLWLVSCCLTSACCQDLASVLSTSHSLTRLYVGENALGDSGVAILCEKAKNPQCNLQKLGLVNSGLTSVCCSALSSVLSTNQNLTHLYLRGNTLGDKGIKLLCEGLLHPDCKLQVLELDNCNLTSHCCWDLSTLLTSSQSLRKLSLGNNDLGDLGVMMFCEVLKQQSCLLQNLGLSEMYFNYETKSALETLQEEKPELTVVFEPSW
# U937 cells [11] = assay: Comet assay of DNA damage in U937 cells; type: cell-based; conditions: U937, 5 μg/mL, 24 hours, compared to untreated cells
# Method: Comet assays. Monocytic U937 cells were treated with 5 μg/mL rhS100A9 for 24 hr. DNA damage was measured by single cell gel electrophoresis using alkaline CometAssay® according to manufacturer's protocol (Trevigen Inc.).
# ROS [12] = assay: ROS detection by flow cytometry in U937 cells; type: cell-based; conditions: U937, 5 μg/mL, 24 hours, compared to untreated cells
# Text: as §2
# U937 cells [13] = assay: S100A9 flow cytometry experiments in U937 cells (a-caspase-1/annexin-V); type: cell-based
# Method: S100A9 flow cytometry experiments in U937 cells. Monocytic U937 cells were treated with the indicated concentrations of rhS100A9 for 24 hours, or with 5 μg/mL rhS100A9 for the indicated time points. Subsequently, cells were stained with 30× FAM-FLICA® Caspase-1 solution at a ratio of 1:30 for 2 hours at 37° C. Cells were washed, resuspended in 1× binding buffer, and stained with Annexin-V:PE at a dilution of 1:30 for 15 minutes at room temperature. 1× binding buffer was added to a final volume of 350 μL. Sample acquisitions were carried out using a BD FACSCalibur flow cytometer (BD Biosciences). Data were analyzed using FlowJo 9.7.5 software.
# [14] = increasing concentrations, 24 hours
molecule,measurement,setting,value
"CC(=O)N[C@@H](CS)C(=O)O [NAC, N-acetylcysteine]",inflammasome formation (ASC) in SF3B1-K700E mutant-expressing BM cells,inflammasome,significantly reduced
same,β-catenin activation in U2AF1-S34F mutant cells,β-catenin [1],effectively reduced
same,percentage of cells with elevated levels of nuclear β-catenin in SF3B1-K700E BM cells,β-catenin [2],significantly reduced
same,ROS MFI in SF3B1-K700E BM cells,ROS [3],extinguished below the level of WT controls
same,mean percentage of ROS+ cells in SF3B1-K700E BM cells,ROS [3],extinguished below the level of WT controls
same,S100A9-triggered nuclear translocation of β-catenin in normal BM-MNC,β-catenin [4]; S100A9 treatment of normal BM-MNC,abolished
c1ccc2c(c1)[I+]c1ccccc1-2 [DPI],inflammasome formation (ASC) in SF3B1-K700E mutant-expressing BM cells,inflammasome,significantly reduced
same,β-catenin activation in U2AF1-S34F mutant cells,β-catenin [1],effectively reduced
same,percentage of cells with elevated levels of nuclear β-catenin in SF3B1-K700E BM cells,β-catenin [2],significantly reduced
same,ROS MFI in SF3B1-K700E BM cells,ROS [3],extinguished below the level of WT controls
same,mean percentage of ROS+ cells in SF3B1-K700E BM cells,ROS [3],extinguished below the level of WT controls
"rhS100A9: recombinant human S100A9, alarmin / DAMP protein, TLR4 and CD33 ligand",levels of nuclear (activated) β-catenin in U937,β-catenin [5],marked increases
same,expression of pyroptosis-associated genes,[6],significantly up-regulated
same,uptake of ethidium bromide,U937 cells [7],rapid and substantial uptake
same,inflammasome complexes,NLRP3 inflammasome [8],marked induction
same,MFI of NLRP3,NLRP3 inflammasome [8]; versus controls,significantly increased
same,MFI of a-caspase-1,NLRP3 inflammasome [8]; versus controls,significantly increased
same,"NLRP3 levels, fold induction",NLRP3 inflammasome [9],47.1 fold
same,"a-caspase-1 levels, fold induction",NLRP3 inflammasome [9],2.5 fold
same,"formation of NLRP3 inflammasomes, fold induction",NLRP3 inflammasome [9],2.9 fold
same,levels of NLRP3 inflammasome complexes in U937,NLRP3 inflammasome [10],markedly increased
same,fold increase in DNA damage,U937 cells [11],4.1 fold
same,fold increase in mean percentage of ROS-positive cells,ROS [12],2.9 fold
same,levels of nuclear β-catenin in normal BM-MNC,"β-catenin [4]; 5 μg/mL, 24 hours, compared to controls",elevated levels
same,activation of caspase-1 in U937 over time,U937 cells [13]; 5 μg/mL,time-dependent increase
same,a-caspase-1 MFI in U937,U937 cells [13]; [14],corresponding increase
same,fraction of pyroptotic cells in U937,U937 cells [13]; [14],concentration-dependent increase
same,percentage of a-caspase-1+ cells in U937,U937 cells [13]; [14],corresponding increase
